Assays:
Experiment in all cases: KINOMEscan competition binding
Conditions in all cases: compound 10.0 µM
KDR (human) = KDR (human) (UniProt P35968)
[1] = system: ABL1 (human), P00519 [F317L]
[2] = system: ABL1 (human), P00519 [M351T]
CAMK1G (human) = CAMK1G (human) (UniProt Q96NX5)
PKN2 (human) = PKN2 (human) (UniProt Q16513)
EPHA4 (human) = EPHA4 (human) (UniProt P54764)
DCLK2 (human) = DCLK2 (human) (UniProt Q8N568)
NLK (human) = NLK (human) (UniProt Q9UBE8)
PRKAA2 (human) = PRKAA2 (human) (UniProt P54646)
PRKAA2 (human), sequence (P54646 whole entry, looked up): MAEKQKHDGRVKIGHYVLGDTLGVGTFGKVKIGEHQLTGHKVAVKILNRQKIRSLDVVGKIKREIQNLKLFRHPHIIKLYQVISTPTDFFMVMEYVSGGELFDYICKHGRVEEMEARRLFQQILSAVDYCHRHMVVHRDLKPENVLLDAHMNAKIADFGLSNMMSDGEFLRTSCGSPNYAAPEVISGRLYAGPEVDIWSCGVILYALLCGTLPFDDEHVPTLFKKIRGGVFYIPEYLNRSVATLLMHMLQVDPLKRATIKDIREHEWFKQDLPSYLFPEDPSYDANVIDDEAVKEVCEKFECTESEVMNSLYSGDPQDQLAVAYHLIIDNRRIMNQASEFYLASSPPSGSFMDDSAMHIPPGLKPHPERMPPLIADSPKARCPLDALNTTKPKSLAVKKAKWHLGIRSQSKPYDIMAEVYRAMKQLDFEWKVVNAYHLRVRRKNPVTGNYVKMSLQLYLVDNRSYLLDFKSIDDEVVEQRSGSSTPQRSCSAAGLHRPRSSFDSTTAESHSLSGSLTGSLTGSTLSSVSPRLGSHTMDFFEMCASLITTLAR

TYRO3 (human) = TYRO3 (human) (UniProt Q06418)
ERBB4 (human) = ERBB4 (human) (UniProt Q15303)
CAMK1D (human) = CAMK1D (human) (UniProt Q8IU85)
[3] = system: ABL1 (human), P00519 [F317I]
LATS1 (human) = LATS1 (human) (UniProt O95835)
CDK14 (human) = CDK14 (human) (UniProt O94921)
[4] = system: ABL1 (human), P00519 [E255K]
NUAK1 (human) = NUAK1 (human) (UniProt O60285)
CDC42BPG (human) = CDC42BPG (human) (UniProt Q6DT37)
EPHB1 (human) = EPHB1 (human) (UniProt P54762)
WEE2 (human) = WEE2 (human) (UniProt P0C1S8)
CDC2L2 (human) = CDC2L2 (human) (UniProt Q9UQ88)
MARK3 (human) = MARK3 (human) (UniProt P27448)
PAK7 (human) = PAK7 (human) (UniProt Q9P286)
PAK7 (human), sequence (Q9P286 whole entry, looked up): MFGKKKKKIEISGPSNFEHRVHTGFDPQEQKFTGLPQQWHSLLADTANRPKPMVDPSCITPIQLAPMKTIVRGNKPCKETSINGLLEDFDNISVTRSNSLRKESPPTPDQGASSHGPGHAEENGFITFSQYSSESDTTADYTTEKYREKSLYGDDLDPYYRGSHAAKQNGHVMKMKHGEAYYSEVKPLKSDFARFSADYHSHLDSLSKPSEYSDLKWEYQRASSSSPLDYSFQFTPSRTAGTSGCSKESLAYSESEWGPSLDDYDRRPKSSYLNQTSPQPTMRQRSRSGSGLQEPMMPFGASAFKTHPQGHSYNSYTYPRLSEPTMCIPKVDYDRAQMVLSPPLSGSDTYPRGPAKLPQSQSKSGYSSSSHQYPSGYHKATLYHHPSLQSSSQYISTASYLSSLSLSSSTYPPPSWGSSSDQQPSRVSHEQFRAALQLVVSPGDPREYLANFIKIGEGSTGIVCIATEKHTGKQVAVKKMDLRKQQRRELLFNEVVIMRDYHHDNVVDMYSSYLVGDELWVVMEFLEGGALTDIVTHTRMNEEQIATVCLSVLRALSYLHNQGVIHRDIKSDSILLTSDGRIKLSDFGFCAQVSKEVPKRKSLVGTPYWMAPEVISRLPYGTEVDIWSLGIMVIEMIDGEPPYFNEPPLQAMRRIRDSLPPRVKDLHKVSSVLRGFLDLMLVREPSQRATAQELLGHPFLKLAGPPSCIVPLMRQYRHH

SIK1 (human) = SIK1 (human) (UniProt P57059)
[5] = system: ABL1 (human), P00519 [H396P]
MAP2K6 (human) = MAP2K6 (human) (UniProt P52564)
FES (human) = FES (human) (UniProt P07332)
TGFBR1 (human) = TGFBR1 (human) (UniProt P36897)
BRSK1 (human) = BRSK1 (human) (UniProt Q8TDC3)
TXK (human) = TXK (human) (UniProt P42681)
MAPK13 (human) = MAPK13 (human) (UniProt O15264)
IKBKB (human) = IKBKB (human) (UniProt O14920)
INSR (human) = INSR (human) (UniProt P06213)
CDK11B (human) = CDK11B (human) (UniProt P21127)
ADCK3 (human) = ADCK3 (human) (UniProt Q8NI60)
CDK15 (human) = CDK15 (human) (UniProt Q96Q40)
FGFR4 (human) = FGFR4 (human) (UniProt P22455)
FGFR4 (human), sequence (P22455 whole entry, looked up): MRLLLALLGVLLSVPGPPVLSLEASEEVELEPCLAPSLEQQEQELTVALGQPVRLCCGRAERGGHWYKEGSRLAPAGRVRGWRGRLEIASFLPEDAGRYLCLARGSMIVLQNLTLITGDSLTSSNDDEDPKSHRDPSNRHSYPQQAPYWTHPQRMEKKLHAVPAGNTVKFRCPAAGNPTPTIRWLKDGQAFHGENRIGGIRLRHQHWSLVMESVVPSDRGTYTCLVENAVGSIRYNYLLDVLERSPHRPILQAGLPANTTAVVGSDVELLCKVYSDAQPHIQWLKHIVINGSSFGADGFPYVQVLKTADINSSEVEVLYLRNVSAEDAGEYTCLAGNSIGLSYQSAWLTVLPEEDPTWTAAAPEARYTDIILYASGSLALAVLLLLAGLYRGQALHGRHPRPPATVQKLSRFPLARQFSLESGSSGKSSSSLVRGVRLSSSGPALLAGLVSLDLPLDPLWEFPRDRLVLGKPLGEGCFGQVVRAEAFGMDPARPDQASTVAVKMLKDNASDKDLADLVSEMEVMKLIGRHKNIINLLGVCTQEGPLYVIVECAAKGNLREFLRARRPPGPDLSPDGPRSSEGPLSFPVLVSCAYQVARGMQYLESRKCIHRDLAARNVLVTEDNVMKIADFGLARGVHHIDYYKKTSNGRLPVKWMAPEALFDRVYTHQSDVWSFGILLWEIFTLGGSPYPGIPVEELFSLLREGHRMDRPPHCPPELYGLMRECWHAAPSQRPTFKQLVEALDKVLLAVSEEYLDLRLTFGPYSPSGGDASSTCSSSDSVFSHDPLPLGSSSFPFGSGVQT

GSK3B (human) = GSK3B (human) (UniProt P49841)
PLK1 (human) = PLK1 (human) (UniProt P53350)
PLK1 (human), sequence (P53350 whole entry, looked up): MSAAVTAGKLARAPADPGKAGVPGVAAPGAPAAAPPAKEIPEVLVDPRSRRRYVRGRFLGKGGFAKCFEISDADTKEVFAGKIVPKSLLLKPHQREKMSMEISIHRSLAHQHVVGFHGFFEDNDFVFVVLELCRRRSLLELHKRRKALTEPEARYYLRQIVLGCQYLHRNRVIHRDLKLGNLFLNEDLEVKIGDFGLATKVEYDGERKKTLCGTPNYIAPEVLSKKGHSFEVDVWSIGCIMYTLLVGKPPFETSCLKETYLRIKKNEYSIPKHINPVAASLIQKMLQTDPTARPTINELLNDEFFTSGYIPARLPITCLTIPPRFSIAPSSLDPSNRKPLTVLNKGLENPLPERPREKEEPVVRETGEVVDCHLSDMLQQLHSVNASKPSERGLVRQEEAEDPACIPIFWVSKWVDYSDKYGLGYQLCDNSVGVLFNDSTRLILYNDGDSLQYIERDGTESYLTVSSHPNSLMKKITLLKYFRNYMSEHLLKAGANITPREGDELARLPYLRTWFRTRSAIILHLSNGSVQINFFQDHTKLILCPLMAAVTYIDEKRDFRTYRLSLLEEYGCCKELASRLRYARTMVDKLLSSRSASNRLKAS

MAP3K9 (human) = MAP3K9 (human) (UniProt P80192)
MAP3K9 (human), sequence (P80192 whole entry, looked up): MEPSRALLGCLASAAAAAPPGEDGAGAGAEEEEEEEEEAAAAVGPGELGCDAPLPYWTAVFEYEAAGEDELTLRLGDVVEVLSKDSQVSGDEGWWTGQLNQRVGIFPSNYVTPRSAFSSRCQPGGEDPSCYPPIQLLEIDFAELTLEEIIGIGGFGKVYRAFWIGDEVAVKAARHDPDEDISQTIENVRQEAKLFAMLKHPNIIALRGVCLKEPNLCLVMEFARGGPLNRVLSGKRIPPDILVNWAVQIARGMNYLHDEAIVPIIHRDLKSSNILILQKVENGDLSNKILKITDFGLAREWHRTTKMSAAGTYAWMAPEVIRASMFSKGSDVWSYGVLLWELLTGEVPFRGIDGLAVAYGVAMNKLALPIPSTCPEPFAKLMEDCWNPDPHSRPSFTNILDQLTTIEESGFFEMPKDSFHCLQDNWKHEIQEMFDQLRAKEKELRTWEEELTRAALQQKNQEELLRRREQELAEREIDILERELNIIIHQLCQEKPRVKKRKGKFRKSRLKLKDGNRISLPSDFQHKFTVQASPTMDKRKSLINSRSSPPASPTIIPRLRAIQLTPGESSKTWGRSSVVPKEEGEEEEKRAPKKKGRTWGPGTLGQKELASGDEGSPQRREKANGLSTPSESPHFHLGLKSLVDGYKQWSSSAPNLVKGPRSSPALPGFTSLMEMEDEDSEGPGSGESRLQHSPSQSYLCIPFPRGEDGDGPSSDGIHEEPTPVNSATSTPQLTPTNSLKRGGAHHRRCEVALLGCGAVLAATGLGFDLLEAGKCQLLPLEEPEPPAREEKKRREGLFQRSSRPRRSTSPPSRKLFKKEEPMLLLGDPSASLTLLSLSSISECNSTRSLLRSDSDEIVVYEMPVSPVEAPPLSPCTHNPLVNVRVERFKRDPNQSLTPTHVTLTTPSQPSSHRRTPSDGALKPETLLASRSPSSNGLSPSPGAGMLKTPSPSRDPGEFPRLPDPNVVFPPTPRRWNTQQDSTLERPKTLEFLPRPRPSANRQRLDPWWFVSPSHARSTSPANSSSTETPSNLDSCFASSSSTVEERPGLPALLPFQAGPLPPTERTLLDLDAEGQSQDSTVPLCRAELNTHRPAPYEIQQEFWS

RPS6KA1 KD1 (human) = RPS6KA1 KD1 (human) (UniProt Q15418)
RPS6KA1 KD1 (human), sequence (Q15418 whole entry, looked up): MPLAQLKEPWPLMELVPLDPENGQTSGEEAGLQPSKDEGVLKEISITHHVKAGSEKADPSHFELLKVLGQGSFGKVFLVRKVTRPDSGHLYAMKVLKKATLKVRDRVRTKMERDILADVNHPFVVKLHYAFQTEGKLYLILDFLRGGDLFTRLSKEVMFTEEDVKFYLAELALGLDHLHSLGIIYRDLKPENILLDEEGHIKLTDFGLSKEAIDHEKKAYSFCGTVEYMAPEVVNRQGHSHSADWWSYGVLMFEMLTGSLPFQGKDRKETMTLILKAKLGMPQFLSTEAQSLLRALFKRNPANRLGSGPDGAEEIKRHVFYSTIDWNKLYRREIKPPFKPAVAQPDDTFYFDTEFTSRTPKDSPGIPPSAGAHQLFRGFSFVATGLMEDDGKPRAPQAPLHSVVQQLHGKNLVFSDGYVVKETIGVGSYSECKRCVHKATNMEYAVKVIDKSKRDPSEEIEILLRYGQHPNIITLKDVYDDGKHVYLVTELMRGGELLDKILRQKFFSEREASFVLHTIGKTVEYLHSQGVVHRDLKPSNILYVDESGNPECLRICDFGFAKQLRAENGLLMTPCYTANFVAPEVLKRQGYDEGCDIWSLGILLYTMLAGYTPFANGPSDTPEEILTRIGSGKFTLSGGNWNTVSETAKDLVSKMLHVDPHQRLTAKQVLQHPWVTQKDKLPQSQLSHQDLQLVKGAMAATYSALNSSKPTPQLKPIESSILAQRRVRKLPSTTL

NTRK1 (human) = NTRK1 (human) (UniProt P04629)

NLK (human), sequence (Q9UBE8 whole entry, looked up): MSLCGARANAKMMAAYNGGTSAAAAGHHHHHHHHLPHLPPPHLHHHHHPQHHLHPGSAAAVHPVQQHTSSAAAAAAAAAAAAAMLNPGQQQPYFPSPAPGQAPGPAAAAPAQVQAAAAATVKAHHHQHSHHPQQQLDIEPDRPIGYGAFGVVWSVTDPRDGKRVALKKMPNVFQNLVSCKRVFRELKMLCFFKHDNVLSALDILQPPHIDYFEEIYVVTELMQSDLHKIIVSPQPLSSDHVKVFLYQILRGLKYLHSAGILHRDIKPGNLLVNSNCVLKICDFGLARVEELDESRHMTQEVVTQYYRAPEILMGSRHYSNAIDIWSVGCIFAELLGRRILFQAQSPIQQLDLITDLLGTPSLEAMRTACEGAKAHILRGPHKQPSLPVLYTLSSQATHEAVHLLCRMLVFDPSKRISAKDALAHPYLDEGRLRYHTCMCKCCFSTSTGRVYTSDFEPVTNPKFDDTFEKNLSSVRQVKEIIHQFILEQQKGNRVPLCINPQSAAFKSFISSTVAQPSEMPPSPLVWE

SMILES: COc1cc(N2CCN(C)CC2)ccc1Nc1ncc2c(n1)Nc1ccccc1NC2=O
- kinase still bound, per cent of control (KDR (human)): 74%
- kinase still bound, per cent of control [1]: 29%
- kinase still bound, per cent of control [2]: 15%
- kinase still bound, per cent of control (CAMK1G (human)): 100%
- kinase still bound, per cent of control (PKN2 (human)): 100%
- kinase still bound, per cent of control (EPHA4 (human)): 100%
- kinase still bound, per cent of control (DCLK2 (human)): 89%
- kinase still bound, per cent of control (NLK (human)): 100%
- kinase still bound, per cent of control (PRKAA2 (human)): 84%
- kinase still bound, per cent of control (TYRO3 (human)): 100%
- kinase still bound, per cent of control (ERBB4 (human)): 62%
- kinase still bound, per cent of control (CAMK1D (human)): 100%
- kinase still bound, per cent of control [3]: 65%
- kinase still bound, per cent of control (LATS1 (human)): 90%
- kinase still bound, per cent of control (CDK14 (human)): 100%
- kinase still bound, per cent of control [4]: 19%
- kinase still bound, per cent of control (NUAK1 (human)): 63%
- kinase still bound, per cent of control (CDC42BPG (human)): 100%
- kinase still bound, per cent of control (EPHB1 (human)): 96%
- kinase still bound, per cent of control (WEE2 (human)): 93%
- kinase still bound, per cent of control (CDC2L2 (human)): 100%
- kinase still bound, per cent of control (MARK3 (human)): 100%
- kinase still bound, per cent of control (PAK7 (human)): 78%
- kinase still bound, per cent of control (SIK1 (human)): 27%
- kinase still bound, per cent of control [5]: 21%
- kinase still bound, per cent of control (MAP2K6 (human)): 97%
- kinase still bound, per cent of control (FES (human)): 100%
- kinase still bound, per cent of control (TGFBR1 (human)): 79%
- kinase still bound, per cent of control (BRSK1 (human)): 91%
- kinase still bound, per cent of control (TXK (human)): 80%
- kinase still bound, per cent of control (MAPK13 (human)): 100%
- kinase still bound, per cent of control (IKBKB (human)): 100%
- kinase still bound, per cent of control (INSR (human)): 69%
- kinase still bound, per cent of control (CDK11B (human)): 100%
- kinase still bound, per cent of control (ADCK3 (human)): 100%
- kinase still bound, per cent of control (CDK15 (human)): 58%
- kinase still bound, per cent of control (FGFR4 (human)): 100%
- kinase still bound, per cent of control (GSK3B (human)): 53%
- kinase still bound, per cent of control (PLK1 (human)): 99%
- kinase still bound, per cent of control (MAP3K9 (human)): 82%
- kinase still bound, per cent of control (RPS6KA1 KD1 (human)): 96%
- kinase still bound, per cent of control (NTRK1 (human)): 1.6%

SMILES: COc1cc(N2CCN(C)CC2)ccc1Nc1ncc2c(n1)N(C)c1ccccc1N(C)C2=O
- kinase still bound, per cent of control (KDR (human)): 100%
- kinase still bound, per cent of control [1]: 45%
- kinase still bound, per cent of control [2]: 78%
- kinase still bound, per cent of control (CAMK1G (human)): 100%
- kinase still bound, per cent of control (PKN2 (human)): 100%
- kinase still bound, per cent of control (EPHA4 (human)): 95%
- kinase still bound, per cent of control (DCLK2 (human)): 68%
- kinase still bound, per cent of control (NLK (human)): 100%
- kinase still bound, per cent of control (PRKAA2 (human)): 94%
- kinase still bound, per cent of control (TYRO3 (human)): 100%
- kinase still bound, per cent of control (ERBB4 (human)): 88%
- kinase still bound, per cent of control (CAMK1D (human)): 99%
- kinase still bound, per cent of control [3]: 67%
- kinase still bound, per cent of control (LATS1 (human)): 94%
- kinase still bound, per cent of control (CDK14 (human)): 100%
- kinase still bound, per cent of control [4]: 100%
- kinase still bound, per cent of control (NUAK1 (human)): 100%
- kinase still bound, per cent of control (CDC42BPG (human)): 100%
- kinase still bound, per cent of control (EPHB1 (human)): 100%
- kinase still bound, per cent of control (WEE2 (human)): 100%
- kinase still bound, per cent of control (CDC2L2 (human)): 100%
- kinase still bound, per cent of control (MARK3 (human)): 98%
- kinase still bound, per cent of control (PAK7 (human)): 79%
- kinase still bound, per cent of control (SIK1 (human)): 100%
- kinase still bound, per cent of control [5]: 100%
- kinase still bound, per cent of control (MAP2K6 (human)): 65%
- kinase still bound, per cent of control (FES (human)): 100%
- kinase still bound, per cent of control (TGFBR1 (human)): 97%
- kinase still bound, per cent of control (BRSK1 (human)): 84%
- kinase still bound, per cent of control (TXK (human)): 100%
- kinase still bound, per cent of control (MAPK13 (human)): 100%
- kinase still bound, per cent of control (IKBKB (human)): 75%
- kinase still bound, per cent of control (INSR (human)): 52%
- kinase still bound, per cent of control (CDK11B (human)): 100%
- kinase still bound, per cent of control (ADCK3 (human)): 85%
- kinase still bound, per cent of control (CDK15 (human)): 68%
- kinase still bound, per cent of control (FGFR4 (human)): 97%
- kinase still bound, per cent of control (GSK3B (human)): 82%
- kinase still bound, per cent of control (PLK1 (human)): 100%
- kinase still bound, per cent of control (MAP3K9 (human)): 100%
- kinase still bound, per cent of control (RPS6KA1 KD1 (human)): 97%
- kinase still bound, per cent of control (NTRK1 (human)): 76%
